# Experimental data from patent US7238716B2, “Alkanoic acid derivatives process for their production and use thereof” (Takeda Pharmaceuticals Company Limited, priority 2000, dated 2007).
# Legend:
# KKA^y mice = assay: Total cholesterol lowering action and plasma anti-arteriosclerosis index enhancing action in mice (Test Example 2); type: in vivo; settings: Mus musculus, po, 96 h, four days; for change in vivo at 0.005 % / change in vivo at 0.01 %: percent increase of [(HDL cholesterol/total cholesterol)×100] vs non-administration group; for change in vivo at 0.005 % / inhibition in vivo at 0.005 %: 0.005% in powdery diet; for inhibition in vivo at 0.005 % / inhibition in vivo at 0.01 %: percent reduction of plasma total cholesterol level vs non-administration group; for change in vivo at 0.01 % / inhibition in vivo at 0.01 %: 0.01% in powdery diet
# Text: Test compounds were mixed in a powdery diet (CE-2, Japan Clea) the concentration of 0.01% (compounds of Examples 7, 26, 29 and 32) or 0.005% (compounds of Examples 1, 11, 15, 18, 24, 36, 37, 41, 48, 50, 51, 52, 58, 62, 79, 88, 91, 92, 93, 97, 107, 110, 129 and 130), and freely given to KKA^y mice (11 to 12 weeks old, 5 mice per group), a model of type-2 diabetes mellitus, for four days. During this period, water was given freely. Blood was sampled from orbital venous plexus and components were analyzed using the plasma separated from the blood. Total cholesterol levels were determined by using L type Wako Cholesterol (Wako Pure Chemical Industries, Ltd). Precipitation reagent for HDL cholesterol (Wako Pure Chemical Industries, Ltd.) was added to a part of the plasma to precipitate non-HDL lipoprotein, and cholesterol (HDL cholesterol) in the resulting supernatant was determined. The plasma anti-arteriosclerosis index [(HDL cholesterol/total cholesterol)×100] was calculated by using these cholesterol levels.
# In the Table, “Total cholesterol lowering action (%)” represents the percent reduction (%) of total cholesterol level in the test compound administration group, when the total cholesterol level in the test compound non-administration group is taken as 100%. “Plasma anti-arteriosclerosis index-enhancing action (%)” represents the percent increase (%) of plasma anti-arteriosclerosis index in the test compound administration group, when the plasma anti-arteriosclerosis index in the test compound non-administration group is taken as 100%.
SMILES,melting point,change in vivo at 0.005 % (KKA^y mice) [%],inhibition in vivo at 0.005 % (KKA^y mice) [%],change in vivo at 0.01 % (KKA^y mice) [%],inhibition in vivo at 0.01 % (KKA^y mice) [%]
"Cc1oc(-c2ccccc2)nc1COc1cc(COc2ccccc2CC(=O)O)on1 [Example 79, 2-[2-[3-(5-methyl-2-phenyl-4-oxazolylmethoxy)-5-isoxazoly]methoxylphenyl]acetic acid]",152 to 153 °C,42,39,–,–
"O=C(O)Cc1ccccc1OCc1ccc(OCc2csc(-c3ccccc3)n2)cc1 [Example 51, 2-[2-[4-[(2-phenyl-4-thiazolyl)methoxy]benzyloxy]phenyl]acetic acid]",115 to 116 °C,22,24,–,–
"COc1cc(COc2ccccc2CC(=O)O)ccc1OCc1nc(-c2ccccc2)oc1C [Example 48, 2-[2-[3-methoxy-4-[(2-phenyl-5-methyl-4-oxazolyl)methoxy]benzyloxy]phenyl]acetic acid]",165 to 166 °C,20,17,–,–
"Cc1oc(-c2ccc3ccccc3c2)nc1COc1ccc(COc2ncccc2CC(=O)O)cc1 [Example 130, 2-[2-[4-[5-methyl-2-(2-naphthyl)-4-oxazolylmethoxy]benzyloxy]-3-pyridyl]acetic acid]",155 to 156 °C,15,16,–,–
"CCOc1ccc(OCc2ccc(OCc3nc(-c4ccccc4)oc3C)cc2)c(CCC(=O)O)c1 [Example 29, 3-[5-ethoxy-2-[4-[(5-methyl-2-phenyl-4-oxazolyl)methoxy]benzyloxy]phenyl]propionic acid]",115 to 116 °C,–,–,20,21
"Cc1oc(-c2ccccc2)nc1CCc1noc(COc2ccccc2CC(=O)O)n1 [Example 107, 2-[2-[[3-[2-(5-methyl-2-phenyl-4-oxazolyl)ethyl]-1,2,4-oxadiazol-5-yl]methoxy]phenyl]acetic acid]",120 to 121 °C,9,13,–,–
"Cc1oc(-c2ccccc2)nc1COc1ccc(COc2ncccc2CC(=O)O)cn1 [Example 88, 2-[2-[[6-[(5-methyl-2-phenyl-4-oxazolyl)methoxy]-3-pyridyl]methoxy]-3-pyridyl]acetic acid]",147 to 148 °C,22,10,–,–
"Cc1ccc(CC(=O)O)c(OCc2ccc(OCc3nc(-c4ccccc4)oc3C)cc2)n1 [Example 110, 2-[6-methyl-2-[4-[(5-methyl-2-phenyl-4-oxazolyl)methoxy]benzyloxy]-3-pyridyl]acetic acid]",138 to 139 °C,24,21,–,–
"Cc1sc(-c2ccccc2)nc1COc1ccc(COc2ncccc2CC(=O)O)cc1 [Example 93, 2-[2-[4-[(5-methyl-2-phenyl-4-thiazolyl)methoxy]benzyloxy]-3-pyridyl]acetic acid]",128 to 129 °C,17,16,–,–
"COc1cc(COc2ncccc2CC(=O)O)ccc1OCc1nc(-c2ccccc2)oc1C [Example 91, 2-[2-[3-methoxy-4-[(2-phenyl-5-methyl-4-oxazolyl)methoxy]benzyloxy]-3-pyridyl]acetic acid]",145 to 146 °C,16,6,–,–
"Cc1oc(-c2ccccc2)nc1COc1cc(COc2cccc(CC(=O)O)c2)ccn1 [Example 62, 2-[3-[2-[(5-methyl-2-phenyl-4-oxazolyl)methoxy]-4-pyridylmethoxy]phenyl]acetic acid]",148 to 149 °C,15,9,–,–
"Cc1oc(-c2ccccc2)nc1COc1cc(COc2ncccc2CC(=O)O)on1 [Example 129, 2-[2-[[3-[(5-methyl-2-phenyl-4-oxazolyl)methoxy]-5-isoxazolyl]methoxy]-3-pyridyl]acetic acid]",129 to 130 °C,25,14,–,–
"Cc1oc(-c2ccco2)nc1COc1ccc(COc2ncccc2CC(=O)O)cc1 [Example 92, 2-[2-[4-[[2-(2-furyl)-5-methyl-4-oxazolyl]methoxy]benzyloxy]-3-pyridyl]acetic acid]",151 to 152 °C,23,15,–,–
"CCOc1ccc(OCc2ccc(OCc3nc(-c4ccccc4)oc3C)cc2)cc1CCC(=O)O [Example 7, 3-[2-ethoxy-5-[4-[(5-methyl-2-phenyl-4-oxazolyl)methoxy]benzyloxy]phenyl]propionic acid]",129 to 130 °C,–,–,15,17

# Further lines, with some results ahead:
melting point,SMILES,change in vivo at 0.005 % (KKA^y mice) [%],inhibition in vivo at 0.005 % (KKA^y mice) [%],change in vivo at 0.01 % (KKA^y mice) [%],inhibition in vivo at 0.01 % (KKA^y mice) [%]
141 to 142 °C,"Cc1oc(-c2ccccc2)nc1CCOc1ccc(COc2ccccc2CC(=O)O)cc1 [Example 58, 2-[2-[4-[2-(5-methyl-2-phenyl-4-oxazolyl)ethoxy]benzyloxy]phenyl]acetic acid]",21,20,–,–
144 to 145 °C,"Cc1oc(-c2ccccc2)nc1COc1ccc(COc2ncccc2CC(=O)O)cc1 [Example 36, 2-[2-[4-[(5-methyl-2-phenyl-4-oxazolyl)methoxy]benzyloxy]-3-pyridyl]acetic acid]",34,19,–,–
130 to 131 °C,"Cc1oc(-c2ccccc2)nc1CCc1ccc(COc2ccccc2CC(=O)O)cc1 [Example 97, 2-[2-[4-[2-(5-methyl-2-phenyl-4-oxazolyl)ethyl]benzyloxy]phenyl]acetic acid]",27,27,–,–
160 to 161 °C,"Cc1oc(-c2ccccc2)nc1COc1ccc(COc2ccc(Cl)cc2CC(=O)O)cc1 [Example 18, 2-[5-chloro-2-[4-[(5-methyl-2-phenyl-4-oxazolyl)methoxy]benzyloxy]phenyl]acetic acid]",12,23,–,–
115 to 116 °C (dec.),"Cc1oc(-c2ccccc2)nc1COc1ccc(COc2cccnc2CC(=O)O)cc1 [Example 37, 2-[3-[4-[(5-methyl-2-phenyl-4-oxazolyl)methoxy]benzyloxy]-2-pyridyl]acetic acid]",19,15,–,–
134 to 136 °C,"COc1ccc(OCc2ccc(OCc3nc(-c4ccccc4)oc3C)cc2)c(CC(=O)O)c1 [Example 24, 2-[5-methoxy-2-[4-[(5-methyl-2-phenyl-4-oxazolyl)methoxy]benzyloxy]phenyl]acetic acid]",17,10,–,–
122 to 123 °C,"CCOc1ccc(OCc2ccc(OCc3nc(-c4ccccc4)oc3C)cc2)c(CC(=O)O)c1 [Example 26, 2-[5-ethoxy-2-[4-[(5-methyl-2-phenyl-4-oxazolyl)methoxy]benzyloxy]phenyl]acetic acid]",–,–,16,20
115 to 116 °C,"Cc1ccc(OCc2ccc(OCc3nc(-c4ccccc4)oc3C)cc2)c(CC(=O)O)c1 [Example 15, 2-[5-methyl-2-[4-[(5-methyl-2-phenyl-4-oxazolyl)methoxy]benzyloxy]phenyl]acetic acid]",4,25,–,–
123 to 125 °C,"Cc1oc(-c2ccccc2)nc1COc1ccc(COc2ccccc2CC(=O)O)cn1 [Example 41, 2-[2-[[6-[(5-methyl-2-phenyl-4-oxazolyl)methoxy]-3-pyridyl]methoxy]phenyl]acetic acid]",28,25,–,–
122 to 123 °C,"Cc1sc(-c2ccccc2)nc1COc1ccc(COc2ccccc2CC(=O)O)cc1 [Example 52, 2-[2-[4-[(5-methyl-2-phenyl-4-thiazolyl)methoxy]benzyloxy]phenyl]acetic acid]",15,26,–,–
153 to 154 °C,"Cc1oc(-c2ccccc2)nc1COc1ccc(COc2ccccc2CC(=O)O)cc1 [Example 11, 2-[2-[4-[(5-methyl-2-phenyl-4-oxazolyl)methoxy]benzyloxy]phenyl]acetic acid]",18,23,–,–
159 to 160 °C,"Cc1oc(-c2ccccc2)nc1COc1ccc(COc2cccc(CC(=O)O)c2)cc1 [Example 1, 2-[3-[4-[(5-methyl-2-phenyl-4-oxazolyl)methoxy]benzyloxy]phenyl]acetic acid]",11,7,–,–
167 to 168 °C,"Cc1oc(-c2ccco2)nc1COc1ccc(COc2ccccc2CC(=O)O)cc1 [Example 50, 2-[2-[4-[[2-(2-furyl)-5-methyl-4-oxazolyl]methoxy]benzyloxy]phenyl]acetic acid]",15,20,–,–
